From patent publication US20230265151A1, “GIP/GLP1 CO-AGONIST COMPOUNDS” (priority 2020, published 2023) come the findings set out here.

Where two headings read alike, the source gives them in different places.

Holding throughout (assay type): cell-based
One assay has as its target hGLP-1R (Homo sapiens, UniProt P43220). The assay can be described thus: Functional cAMP formation (HTRF) in HEK-293 clonal cells expressing hGLP-1R, 0.1% bovine casein, without or with 1.0% human serum albumin. Also noted: expressed in transfected cells. The conditions noted are these: for Emax: percent of maximal response to GLP-1(7-36)NH2; for EC50: cAMP, 0.1% bovine casein (no human serum albumin), geometric mean. A digest of the protocol:
(§1)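 Readings of the HTRF 665/620 nm ratio, which falls as cAMP rises, were converted to nM cAMP using a standard curve after 30 min peptide exposure at 37° C.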

Another assay addresses T1, hGCGR (Homo sapiens, UniProt P47871).
T1 construct: expressed in transfected cells
The assay can be described thus: Functional cAMP formation (HTRF) in HEK-293 clonal cells expressing hGCGR, 0.1% bovine casein, without or with 1.0% human serum albumin. Summed up: as §1

The target in a further assay is T2, hGIPR (Homo sapiens, UniProt P48546).
T2 construct: expressed in transfected cells
T2 sequence (P48546 22-466): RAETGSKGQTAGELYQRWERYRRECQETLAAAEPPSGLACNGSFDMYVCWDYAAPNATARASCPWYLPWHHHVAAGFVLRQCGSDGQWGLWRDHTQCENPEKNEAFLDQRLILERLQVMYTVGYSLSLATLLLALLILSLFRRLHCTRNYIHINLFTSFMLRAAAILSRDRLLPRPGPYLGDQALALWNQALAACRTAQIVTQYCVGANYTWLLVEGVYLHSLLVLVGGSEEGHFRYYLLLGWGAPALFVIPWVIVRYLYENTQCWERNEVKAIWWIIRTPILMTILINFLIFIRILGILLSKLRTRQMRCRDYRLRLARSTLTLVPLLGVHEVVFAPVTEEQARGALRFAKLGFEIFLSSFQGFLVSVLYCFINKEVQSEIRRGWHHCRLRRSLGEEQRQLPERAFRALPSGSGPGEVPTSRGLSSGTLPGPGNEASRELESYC
The assay can be described thus: Functional cAMP formation (HTRF) in HEK-293 clonal cells expressing hGIPR, 0.1% bovine casein, without or with 1.0% human serum albumin. The conditions noted are these: for Emax: percent of maximal response to GIP(1-42)NH2. Summed up: as §1

The mark [1] stands for this setting: HEK293, read-out: hGLP-1R Emax, % ± SEM, 0.1% bovine casein and 1.0% human serum albumin, 37° C.
Where [2] appears, read: hGLP-1R EC50, nM (SEM, n), 37° C.
Setting [3] is: hGCGR EC50, nM (SEM, n), 0.1% bovine casein and 1.0% human serum albumin, 37° C., geometric mean.
[4] abbreviates: hGCGR EC50, nM (SEM, n), cAMP, 37° C., 0.1% bovine casein (no human serum albumin), geometric mean.
Setting [5] is: HEK293, read-out: hGIPR Emax, % ± SEM, 0.1% bovine casein and 1.0% human serum albumin, 37° C.
Setting [6] is: hGIPR EC50, nM (SEM, n), cAMP, 37° C., 0.1% bovine casein (no human serum albumin), geometric mean.

Sequence of hGLP-1R (P43220 24-463): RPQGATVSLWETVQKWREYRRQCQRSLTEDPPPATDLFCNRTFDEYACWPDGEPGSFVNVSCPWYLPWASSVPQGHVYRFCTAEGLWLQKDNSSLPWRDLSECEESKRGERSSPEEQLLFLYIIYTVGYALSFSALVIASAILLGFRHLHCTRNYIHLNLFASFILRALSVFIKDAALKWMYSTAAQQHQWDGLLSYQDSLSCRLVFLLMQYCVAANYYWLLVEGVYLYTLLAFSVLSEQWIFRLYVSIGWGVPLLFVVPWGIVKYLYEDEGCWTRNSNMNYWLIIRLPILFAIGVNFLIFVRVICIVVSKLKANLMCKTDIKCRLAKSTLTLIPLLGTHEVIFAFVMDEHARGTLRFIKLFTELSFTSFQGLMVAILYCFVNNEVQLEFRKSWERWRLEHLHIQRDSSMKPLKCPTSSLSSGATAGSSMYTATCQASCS
T1 sequence (P47871 26-477): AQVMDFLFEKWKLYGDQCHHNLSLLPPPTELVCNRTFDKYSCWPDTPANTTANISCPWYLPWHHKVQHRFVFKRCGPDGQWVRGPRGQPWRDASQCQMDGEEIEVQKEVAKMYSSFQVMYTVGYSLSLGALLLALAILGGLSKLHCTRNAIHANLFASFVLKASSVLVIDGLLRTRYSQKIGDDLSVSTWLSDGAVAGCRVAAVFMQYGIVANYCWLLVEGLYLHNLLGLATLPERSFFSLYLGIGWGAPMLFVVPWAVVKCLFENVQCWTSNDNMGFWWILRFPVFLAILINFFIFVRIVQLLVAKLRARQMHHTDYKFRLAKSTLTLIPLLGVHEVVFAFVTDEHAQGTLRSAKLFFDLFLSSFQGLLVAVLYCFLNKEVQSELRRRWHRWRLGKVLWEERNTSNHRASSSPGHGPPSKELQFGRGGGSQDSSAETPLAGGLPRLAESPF

As for `CC[C@H](C)[C@H](NC(=O)[C@H](CCCN)NC(=O)[C@H](CC(=O)O)NC(=O)[C@H](CC(C)C)NC(=O)[C@](C)(CC(C)C)NC(=O)[C@@H](NC(=O)[C@H](CO)NC(=O)[C@H](Cc1ccc(OC)cc1)NC(=O)[C@H](CC(=O)O)NC(=O)[C@H](CO)NC(=O)[C@@H](NC(=O)[C@](C)(Cc1ccccc1F)NC(=O)[C@@H](NC(=O)CNC(=O)[C@H](CCC(=O)O)NC(=O)C(C)(C)NC(=O)[C@@H](N)Cc1ccc(O)cc1)[C@@H](C)O)[C@@H](C)O)[C@@H](C)CC)C(=O)N[C@@H](C)C(=O)N[C@@H](CCC(N)=O)C(=O)NC(C)(C)C(=O)N[C@@H](CCCCNC(=O)COCCOCCNC(=O)COCCOCCNC(=O)CC[C@H](NC(=O)CCCCCCCCCOc1ccc(C(=O)O)cc1)C(=O)O)C(=O)N[C@@H](Cc1ccccc1)C(=O)N[C@H](C(=O)N[C@H](CCC(=O)O)C(=O)N[C@@](C)(Cc1ccc(O)cc1)C(=O)N[C@@H](CC(C)C)C(=O)N[C@H](C(=O)N[C@@H](CCCCNC(=O)COCCOCCNC(=O)COCCOCCNC(=O)CC[C@H](NC(=O)CCCCCCCCCOc1ccc(C(=O)O)cc1)C(=O)O)C(=O)NCC(=O)NCC(=O)N1CCC[C@H]1C(=O)N[C@@H](CO)C(=O)N[C@@H](CO)C(=O)NCC(=O)N[C@@H](C)C(=O)N1CCC[C@H]1C(=O)N1CCC[C@H]1C(=O)N1CCC[C@H]1C(=O)N[C@@H](CO)C(N)=O)[C@@H](C)CC)[C@@H](C)CC` [Example 280], the Emax at hGLP-1R (setting [1]) is 105%; on hGIPR (setting [5]) it was 88.5%; at hGIPR (HEK293, read-out: hGIPR Emax, % ± SEM, cAMP, 37° C., 0.1% bovine casein, arithmetic mean) it was 105%. Further, the EC50 is 0.346 nM on hGLP-1R (setting [2]); > 9950 nM on hGCGR (setting [3]); > 9950 nM at hGCGR (setting [4]); 4.84 nM on hGIPR (hGIPR EC50, nM (SEM, n), 0.1% bovine casein and 1.0% human serum albumin, 37° C., geometric mean); 0.0229 nM on hGIPR (setting [6]).

In the case of `CC[C@H](C)[C@H](NC(=O)[C@H](CCCN)NC(=O)[C@H](CC(=O)O)NC(=O)[C@H](CC(C)C)NC(=O)[C@](C)(CC(C)C)NC(=O)[C@@H](NC(=O)C(C)(C)NC(=O)[C@H](Cc1ccncc1)NC(=O)[C@H](CC(=O)O)NC(=O)[C@H](CO)NC(=O)[C@@H](NC(=O)[C@](C)(Cc1ccccc1F)NC(=O)[C@@H](NC(=O)CNC(=O)[C@H](CCC(=O)O)NC(=O)C(C)(C)NC(=O)[C@@H](N)Cc1ccc(O)cc1)[C@@H](C)O)[C@@H](C)O)[C@@H](C)CC)C(=O)N[C@@H](C)C(=O)N[C@@H](CCC(N)=O)C(=O)NC(C)(C)C(=O)N[C@@H](CCCCNC(=O)COCCOCCNC(=O)COCCOCCNC(=O)CC[C@H](NC(=O)CCCCCCCCCOc1ccc(C(=O)O)cc1)C(=O)O)C(=O)N[C@@H](Cc1ccccc1)C(=O)N[C@H](C(=O)N[C@H](CCC(=O)O)C(=O)N[C@@](C)(Cc1ccc(O)cc1)C(=O)N[C@@H](CC(C)C)C(=O)N[C@H](C(=O)N[C@@H](CCCCNC(=O)COCCOCCNC(=O)COCCOCCNC(=O)CC[C@H](NC(=O)CCCCCCCCCOc1ccc(C(=O)O)cc1)C(=O)O)C(=O)NCC(=O)NCC(=O)N1CCC[C@H]1C(=O)N[C@@H](CO)C(=O)N[C@@H](CO)C(=O)NCC(=O)N[C@@H](C)C(=O)N1CCC[C@H]1C(=O)N1CCC[C@H]1C(=O)N1CCC[C@H]1C(=O)N[C@@H](CO)C(N)=O)[C@@H](C)CC)[C@@H](C)CC` [Example 247], the Emax is 109% on hGLP-1R (setting [1]) and 90.2% on hGIPR (setting [5]). The EC50 at hGLP-1R (hGLP-1R EC50, nM (SEM, n), incubated at 37° C.) is 1 nM; on hGCGR (setting [3]), > 9950 nM; on hGCGR (hGCGR EC50, nM (SEM, n), cAMP, incubated at 37° C., 0.1% bovine casein (no human serum albumin), geometric mean) it was > 9950 nM; at hGIPR (hGIPR EC50, nM (SEM, n), cAMP, incubated at 37° C., 0.1% bovine casein (no human serum albumin), geometric mean), 0.022 nM.

Turning to `CC[C@H](C)[C@H](NC(=O)[C@H](CC(C)C)NC(=O)[C@](C)(Cc1ccc(O)cc1)NC(=O)[C@H](CCCCNC(=O)CCCCCCCNC(=O)COCCOCCNC(=O)CC[C@H](NC(=O)CCCCCCCCCOc1ccc(C(=O)O)cc1)C(=O)O)NC(=O)[C@@H](NC(=O)[C@H](Cc1ccccc1)NC(=O)[C@H](CCCN)NC(=O)C(C)(C)NC(=O)[C@H](CCC(N)=O)NC(=O)[C@H](C)NC(=O)[C@H](CCC(N)=O)NC(=O)[C@H](CCCN)NC(=O)[C@H](CC(=O)O)NC(=O)[C@H](CC(C)C)NC(=O)[C@](C)(CC(C)C)NC(=O)[C@@H](NC(=O)C(C)(C)NC(=O)[C@H](Cc1ccncc1)NC(=O)[C@H](CC(=O)O)NC(=O)[C@H](CO)NC(=O)[C@@H](NC(=O)[C@](C)(Cc1ccccc1F)NC(=O)[C@@H](NC(=O)CNC(=O)[C@H](CCC(=O)O)NC(=O)C(C)(C)NC(=O)[C@@H](N)Cc1ccc(O)cc1)[C@@H](C)O)[C@@H](C)O)[C@@H](C)CC)[C@@H](C)CC)C(=O)N[C@@H](CCCCNC(=O)CCCCCCCNC(=O)COCCOCCNC(=O)CC[C@H](NC(=O)CCCCCCCCCOc1ccc(C(=O)O)cc1)C(=O)O)C(=O)NCC(=O)NCC(=O)N1CCC[C@H]1C(=O)N[C@@H](CO)C(=O)N[C@@H](CO)C(=O)NCC(=O)N[C@@H](C)C(=O)N1CCC[C@H]1C(=O)N1CCC[C@H]1C(=O)N1CCC[C@H]1C(=O)N[C@@H](CO)C(N)=O` [Example 456], the Emax turned out to be 112% on hGLP-1R (HEK293, read-out: hGLP-1R Emax, % ± SEM, cAMP, 37° C., 0.1% bovine casein and 1.0% human serum albumin); 116% on hGLP-1R (HEK293, read-out: hGLP-1R Emax, % ± SEM, cAMP, 37° C., 0.1% bovine casein, arithmetic mean); 94.7% at hGIPR (HEK293, read-out: hGIPR Emax, % ± SEM, cAMP, 37° C., 0.1% bovine casein and 1.0% human serum albumin). Besides, the EC50 is 0.341 nM on hGLP-1R (setting [2]); > 9950 nM at hGCGR (setting [4]); > 9950 nM on hGCGR (hGCGR EC50, nM (SEM, n), cAMP, 37° C., 0.1% bovine casein and 1.0% human serum albumin, geometric mean (SEM, n)); 0.0236 nM on hGIPR (setting [6]); 0.878 nM at hGIPR (hGIPR EC50, nM (SEM, n), cAMP, 37° C., 0.1% bovine casein and 1.0% human serum albumin, geometric mean (SEM, n)).

With `CC[C@H](C)[C@H](NC(=O)[C@H](CC(C)C)NC(=O)[C@](C)(Cc1ccc(O)cc1)NC(=O)[C@@H](CCC(=O)O)NC(=O)[C@@H](NC(=O)[C@H](Cc1ccccc1)NC(=O)[C@H](CCC(=O)O)NC(=O)C(C)(C)NC(=O)[C@H](CCC(N)=O)NC(=O)[C@H](C)NC(=O)[C@H](CCCCNC(=O)COCCOCCNC(=O)COCCOCCNC(=O)CCCCCCCCCCCCC(=O)O)NC(=O)[C@H](CCCN)NC(=O)[C@H](CC(=O)O)NC(=O)[C@H](CC(C)C)NC(=O)[C@](C)(CC(C)C)NC(=O)[C@@H](NC(=O)[C@H](CO)NC(=O)[C@H](Cc1ccc2ccccc2c1)NC(=O)[C@H](CC(=O)O)NC(=O)[C@H](CO)NC(=O)[C@@H](NC(=O)[C@](C)(Cc1ccccc1F)NC(=O)[C@@H](NC(=O)CNC(=O)[C@H](CCC(=O)O)NC(=O)C(C)(C)NC(=O)[C@@H](N)Cc1ccc(O)cc1)[C@@H](C)O)[C@@H](C)O)[C@@H](C)CC)[C@@H](C)CC)C(=O)N[C@@H](CCCCNC(=O)COCCOCCNC(=O)COCCOCCNC(=O)CCCCCCCCCCCCC(=O)O)C(=O)NCC(=O)NCC(=O)N1CCC[C@H]1C(=O)N[C@@H](CO)C(=O)N[C@@H](CO)C(=O)NCC(=O)N[C@@H](C)C(=O)N1CCC[C@H]1C(=O)N1CCC[C@H]1C(=O)N1CCC[C@H]1C(=O)N[C@@H](CO)C(N)=O` [Example 256], the Emax at hGLP-1R (HEK293, 0.1% bovine casein and 1.0% human serum albumin, 37° C., read-out: hGLP-1R Emax, % ± SEM) was found to be 95.5%; on hGLP-1R (HEK293, cAMP, 37° C., 0.1% bovine casein, arithmetic mean, read-out: hGLP-1R Emax, % ± SEM), 95.4%; at hGIPR (HEK293, 0.1% bovine casein and 1.0% human serum albumin, 37° C., read-out: hGIPR Emax, % ± SEM), 75.3%; on hGIPR (HEK293, cAMP, 37° C., 0.1% bovine casein, arithmetic mean, read-out: hGIPR Emax, % ± SEM) it was 97.7%. In addition, the EC50 at hGLP-1R (37° C., read-out: hGLP-1R EC50, nM (SEM, n)) was 0.249 nM; on hGCGR (0.1% bovine casein and 1.0% human serum albumin, 37° C., geometric mean, read-out: hGCGR EC50, nM (SEM, n)) it was > 9950 nM; on hGCGR (cAMP, 37° C., 0.1% bovine casein (no human serum albumin), geometric mean, read-out: hGCGR EC50, nM (SEM, n)), > 9950 nM; at hGIPR (0.1% bovine casein and 1.0% human serum albumin, 37° C., geometric mean, read-out: hGIPR EC50, nM (SEM, n)) it was 1.5 nM; on hGIPR (cAMP, 37° C., 0.1% bovine casein (no human serum albumin), geometric mean, read-out: hGIPR EC50, nM (SEM, n)), 0.0175 nM.
